Values after ≈ are worked out from the molar mass of the structure shown. Like-named read-outs stand apart in the source and are kept apart here.
How the values were obtained:
physchem = settings: aqueous 5% (w/v) γcd
[1] = Effect of previously prepared solid HPβCD-polymer complexing agent on solubility (Example 13); format: physicochemical
Description: The resultant solutions were heated in sealed containers to 120° C. and maintained at that temperature for 30 minutes, then were lyophilized. The solids thus obtained were ground with a mortar and pestle.
The solid cyclodextrin/polymer products were reconstituted with water to afford solutions containing 9.88% (w/v) HPβCD and 0.12% (w/v) PVP, 0.12% (w/v) or CMC 0.12% (w/v) HPMC. The solubilities (S) of three drugs in these solutions and in an aqueous solution containing 10% (w/v) HPβCD without added polymer were then determined as follows:
An excess amount of each drug was added to each of the four cyclodextrin solutions and the solutions were sonicated in an ultrasonic bath for 3 hours, then allowed to equilibrate for 60 hours at room temperature (23° C.). […] However, by separate preparation of the cyclodextrin/polymer complexing agent as illustrated here, one can readily avoid heating drugs which are unstable at elevated temperature.

[2] = Effect of PVP on the solubilization of drugs in aqueous HPβCD solutions (Example 7); settings: for S4 /S3: with vs without 0.25% PVP
[3] = Solubility of various drugs: effect of CMC in aqueous HPβCD solutions (Example 1); settings: for S4 /S3: 0.25% CMC + 10% HPβCD vs 10% HPβCD
[4] = 5% γCD
[5] = format: physicochemical
Description: (2) The apparent stability constants of the drug -cyclodextrin complexes were increased when the polymers were present in the aqueous cyclodextrin complexation media in accord with the present invention. […];

[6] = Transdermal delivery of hydrocortisone in vitro, Franz diffusion cell (Example 15a); format: in vitro ADME, hairless mice; settings: 0.25% (w/v) PVP vs no PVP, at maximum, HPβCD about 12% w/v
Description: . Female hairless mice were sacrificed by cervical dislocation and their full-thickness skins were removed and placed in Franz diffusion cells of type FDC 400 15FF, diameter 1.5 cm (Vangard International Inc., USA), containing 12.3 ml receptor phase. The receptor phase consisted of phosphate buffer saline pH 7.4 containing 0.3% (w/v) Brij-58™ and 0.4% (v/v) formaldehyde and was stirred with a magnetic bar. The receptor chamber was kept at 37° C. by circulating water through an external jacket. […]. After equilibration for three days, 2.0 ml of the donor phase was applied to the skin surface (the stratum corneum) and the donor chamber covered with Parafilm™ (a paraffin-coated plastic film). Samples of the receptor phase were removed from the cells, at 12 hour intervals, for three days and replaced with fresh buffer solution. The samples were kept frozen until analyzed by HPLC. Each experiment was repeated at least three times. The results depicted in FIG. 4 are the mean values ± standard error of the mean (SE).

[7] = ΔH, ΔS and stability constant (Kc) of drug-HPβCD MS 0.6 complexes, effect of PVP (Example 17); format: physicochemical; settings: HPβCD MS 0.6 complex
Description: (§1) The effect of polyvinylpyrrolidone (PVP) on the enthalpy (ΔH) and the entropy (ΔS) of the stability constant (Kc) of the drug-cyclodextrin complex was determined.
(§2) An excess amount of the drug was added to water containing 0, 0.1, 0.25 or 0.5% (w/v) PVP and various amounts of HPβCD or HPαCD.

[8] = for flux (F) through hairless mouse skin: 37° C., mean ± standard deviation, 4 times
[9] = Dissolution of hydrocortisone from tablets, USP XXII paddle apparatus (Example 10); format: physicochemical; settings: 3 minutes, 37° C.
Description: After equilibration for 3 days at room temperature, the suspensions were filtered through 0.45 μm membrane filters, the tiltrates were lyophilized and the solid which formed was ground with a mortar and pestle. The amount of hydrocortisone incorporated into the HPβCD complex was determined by HPLC.
Individual disks of 200 mg hydrocortisone-HPβCD complex were compressed in a hydraulic press under vacuum and a force of 1×10^4 kg for 1.5 minutes using a 13 mm (diameter) IR potassium bromide pellet punch.
The dissolution studies were carried out using a USP XXII described paddle apparatus for dissolution rate determination. The release rate was determined at 37±1° C. and 100 rpm by adding one tablet to 900 ml of water. Samples were withdrawn at various time intervals, filtered through 0.45 membrane filters and analyzed by HPLC.

[10] = format: physicochemical; settings: HPαCD MS 0.6 complex
Description: as §1, §2

NC(=O)N1c2ccccc2C=Cc2ccccc21 [Carbamazepine, carbamazepine]
solubility (physchem): 0.49 mg/mL (≈ 2070 µM)
solubility ([1]; 9.88% hpbetacd + 0.12% cmc, 9.88% (w/v) HPβCD and 0.12% (w/v) CMC, read-out: S3 solubility): 6.66 mg/mL
solubility ([1]; 9.88% hpbetacd + 0.12% hpmc, 9.88% (w/v) HPβCD and 0.12% (w/v) HPMC, read-out: S4 solubility): 9.53 mg/mL
solubility ([1]; 9.88% hpbetacd + 0.12% pvp, 9.88% (w/v) HPβCD and 0.12% (w/v) PVP, read-out: S2 solubility): 9.8 mg/mL
solubility ([1]; 10% hpbetacd, 10% (w/v) HPβCD, read-out: S1 solubility): 7 mg/mL (≈ 29600 µM)
solubility at 72 h ([2]; 0.25% pvp, 10% hpβcd): 7.5 mg/mL (≈ 31700 µM)
solubility at 72 h ([2]; 10% hpβcd ms 0.7): 6.43 mg/mL (≈ 27200 µM)
solubility at 72 h ([2]; aqueous 0.25% pvp): 0.31 mg/mL (≈ 1310 µM)
solubility at 72 h ([2]; water): 0.11 mg/mL (≈ 466 µM)
S4 /S3 [2]: 1.17
S4 /S3 [3]: 1.31
solubility ([3]; 0.25% cmc + 10% hpbetacd): 9.2 mg/mL
solubility ([3]; aqueous 0.25% cmc): 0.2 mg/mL (≈ 846 µM)
solubility ([3]; aqueous 10% hpbetacd): 7 mg/mL (≈ 29600 µM)
solubility ([3]; water): 0.11 mg/mL (≈ 466 µM)
Scp /Sco ([4]; CMC): 1.33
Scp /Sco ([4]; HPMC): 2.27
Scp /Sco ([4]; PVP): 2.18

C[C@@H]1C[C@H]2[C@@H]3CCC4=CC(=O)C=C[C@]4(C)[C@@]3(F)[C@@H](O)C[C@]2(C)[C@@]1(O)C(=O)CO [Dexamethasone, dexamethasone]
increase in apparent stability constant [5]: about 26%
solubility at 72 h ([2]; 0.25% pvp, 10% hpβcd): 8 mg/mL (≈ 20400 µM)
solubility at 72 h ([2]; 10% hpβcd ms 0.7): 7.53 mg/mL (≈ 19200 µM)
solubility at 72 h ([2]; aqueous 0.25% pvp): 0.33 mg/mL (≈ 841 µM)
solubility at 72 h ([2]; water): 0.26 mg/mL (≈ 662 µM)
S4 /S3 [2]: 1.06
S4 /S3 [3]: 1.04
solubility ([3]; 0.25% cmc + 10% hpbetacd): 8.75 mg/mL
solubility ([3]; aqueous 0.25% cmc): 0.33 mg/mL (≈ 841 µM)
solubility ([3]; aqueous 10% hpbetacd): 8.43 mg/mL (≈ 21500 µM)
solubility ([3]; water): 0.26 mg/mL (≈ 662 µM)

C[C@]12CCC(=O)C=C1CC[C@@H]1[C@@H]2[C@@H](O)C[C@@]2(C)[C@H]1CC[C@]2(O)C(=O)CO [Hydrocortisone, hydrocortisone]
flux increase with PVP [6]: about 40%
ΔH ([7]; PVP 0.00% w/v): -20.4 kJ/mol
ΔS ([7]; PVP 0.00% w/v): -6.2 J mol^-1 K^-1
ΔH ([7]; PVP 0.10% w/v): -41.0 kJ/mol
ΔS ([7]; PVP 0.10% w/v): -68.6 J mol^-1 K^-1
ΔH ([7]; PVP 0.25% w/v): -36.5 kJ/mol
ΔS ([7]; PVP 0.25% w/v): -56.4 J mol^-1 K^-1
ΔH ([7]; PVP 0.50% w/v): -38.8 kJ/mol
ΔS ([7]; PVP 0.50% w/v): -64.9 J mol^-1 K^-1
flux (F) through hairless mouse skin ([8]; 6% (w/v) HPβCD MS 0.6 and 0.25% (w/v) PVP): 0.158 ± 0.035 μm/cm^2 /h
transdermal delivery ([8]; PVP-containing sample vs without PVP): over two times faster
flux (F) through hairless mouse skin ([8]; aqueous 8% (w/v) HPβCD MS 0.6): 0.075 ± 0.023 μm/cm^2 /h
hydrocortisone dissolved ([9]; HPβCD complex formed without CMC, average of four): 68.3%
hydrocortisone dissolved ([9]; HPβCD complex with 0.1% (w/v) CMC): 74.2%
hydrocortisone dissolved ([9]; HPβCD complex with 0.25% (w/v) CMC): 81.0%
ΔH ([10]; PVP 0.00% w/v): -32.1 kJ/mol
ΔS ([10]; PVP 0.00% w/v): -70.2 J mol^-1 K^-1
ΔH ([10]; PVP 0.10% w/v): -39.3 kJ/mol
ΔS ([10]; PVP 0.10% w/v): -94.5 J mol^-1 K^-1
ΔH ([10]; PVP 0.25% w/v): -48.4 kJ/mol
ΔS ([10]; PVP 0.25% w/v): -124.2 J mol^-1 K^-1
ΔH ([10]; PVP 0.50% w/v): -35.7 kJ/mol
ΔS ([10]; PVP 0.50% w/v): -81.9 J mol^-1 K^-1
